The target of one data set is NEP24.11 (Homo sapiens, UniProt P08473). Briefly: Tolerance of GLP-1 and its analogues to NEP24.11 (RP-HPLC remaining peak area). It counts as in vitro ADME. The note with it: peptide 30 μM, NEP24.11 1.0 ng/μL, 37° C.; for Remaining peak area (%)/NEP24.11: 0.0 h; for remaining at 0.5 h, 30 μM / remaining at 2 h, 30 μM / remaining at 4 h, 30 μM / remaining at 8 h, 30 μM: isolated NEP24.11 enzyme in buffer; for remaining at 0.5 h, 30 μM: pH 7.4, 0.5 h; for remaining at 2 h, 30 μM: pH 7.4, 2.0 h; for remaining at 4 h, 30 μM: pH 7.4, 4.0 h; for remaining at 8 h, 30 μM: pH 7.4, 8.0 h, read-out: Remaining peak area (%)/NEP24.11. On the procedure: (§1) Mix by centrifugation at 8000 rpm for 30 seconds.
Sequence of NEP24.11 (P08473 whole entry): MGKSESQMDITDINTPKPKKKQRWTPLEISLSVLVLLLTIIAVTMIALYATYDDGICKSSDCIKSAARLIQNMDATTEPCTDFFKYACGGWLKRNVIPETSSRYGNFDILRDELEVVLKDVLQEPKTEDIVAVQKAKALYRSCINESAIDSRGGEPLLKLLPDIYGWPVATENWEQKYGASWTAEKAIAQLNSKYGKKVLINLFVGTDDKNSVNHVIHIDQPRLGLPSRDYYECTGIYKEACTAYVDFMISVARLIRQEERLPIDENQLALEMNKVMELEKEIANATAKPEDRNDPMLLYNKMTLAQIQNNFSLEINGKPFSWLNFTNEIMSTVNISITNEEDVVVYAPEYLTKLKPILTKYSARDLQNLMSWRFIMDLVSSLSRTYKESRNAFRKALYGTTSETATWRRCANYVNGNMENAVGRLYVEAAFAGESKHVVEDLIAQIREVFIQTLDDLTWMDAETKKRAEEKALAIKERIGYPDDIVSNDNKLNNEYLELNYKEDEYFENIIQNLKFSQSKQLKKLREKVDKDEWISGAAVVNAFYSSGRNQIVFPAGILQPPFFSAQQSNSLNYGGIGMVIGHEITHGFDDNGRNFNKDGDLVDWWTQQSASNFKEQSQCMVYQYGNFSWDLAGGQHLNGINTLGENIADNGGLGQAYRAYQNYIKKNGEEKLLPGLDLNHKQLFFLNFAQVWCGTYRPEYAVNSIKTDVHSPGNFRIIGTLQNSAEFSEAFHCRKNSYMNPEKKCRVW
Arrange a certain volume of 0.04 μg/μL NEP24.11 enzyme solution in another sterile EP.

For another data set, the target named is DPP-IV (Homo sapiens, UniProt P27487). Briefly: Tolerance of GLP-1 and its analogues to DPP-IV (RP-HPLC remaining peak area). The data set is classed as in vitro ADME. To be noted: peptide 25 μM, DPP-IV 0.5 ng/μL, 37° C.; for Remaining peak area (%)/DPP-IV: 0.0 h; for remaining at 0.5 h, 25 μM / remaining at 2 h, 25 μM / remaining at 4 h, 25 μM / remaining at 8 h, 25 μM / remaining at 12 h, 25 μM: isolated DPP-IV enzyme in buffer, pH 8. The protocol:
as §1
(2) Arrange a certain volume of 0.005 μg/μL DPP-IV solution in another sterile EP.

Another data set deals with chymotrypsin (Bos taurus, UniProt P00766). Briefly: in vitro. To be noted: isolated enzyme chymotrypsin, pH 7.8, Remaining peak area (%)/chymotrypsin. In outline: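 Peptide and 0.05 μg/μL chymotrypsin were preincubated at 37 °C for 5 min, then mixed. Aliquots taken from 1.5 up to 60.0 min were quenched with 10% TFA, and remaining peptide was measured as RP-HPLC peak area.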

A further data set has as its target T1, trypsin (Bos taurus, UniProt P00760).
T1 sequence (P00760 24-246): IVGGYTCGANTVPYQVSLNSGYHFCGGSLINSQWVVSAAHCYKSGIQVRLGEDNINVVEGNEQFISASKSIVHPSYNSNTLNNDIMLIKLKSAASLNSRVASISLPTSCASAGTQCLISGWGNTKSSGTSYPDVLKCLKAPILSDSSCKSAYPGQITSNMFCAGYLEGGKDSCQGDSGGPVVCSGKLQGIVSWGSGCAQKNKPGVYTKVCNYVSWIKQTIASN
Briefly: in vitro. The protocol:
FIG. 17. […] At different time point, 25 μL aliquots was taken out, and 10% (v/v) TFA was added to terminate the reaction.
as §1
Arrange a certain volume of 0.05 μg/μL trypsin solution in another sterile EP. Incubate the EP tubes containing peptides and enzymes at 37° C. for 5 min, and separately add 6 μL of trypsin solution to each EP tube containing peptides and mix well. Start timing and extract 25 μL of reaction solution at 1.5, 3.0, 4.5, 6.0 and 9.0 min later, respectively. Add 3.75 μL of 10% TFA to terminate the reaction and mix well by centrifugation at 8000 rpm for 30 seconds.
Arrange a certain volume of 0.05 μg/μL trypsin solution in another sterile EP. Incubate the EP tubes containing peptides and enzymes at 37° C. for 5 min, and add 9 μL of trypsin solution to each EP tube containing peptides and mix well. Start timing and extract 25 μL of reaction solution at 1.5, 3.0, 4.5, 6.0, 9.0, 15.0, 30.0, and 60.0 min later, respectively. Add 3.75 μL of 10% TFA to terminate the reaction and mix well by centrifugation at 8000 rpm for 30 seconds.
Referring to the experimental method in Example 5, in vitro stability of salmon Calcitonin analogs with oral administration activity to the enzymatic hydrolysis by trypsin, chymotrypsin and elastase were performed.
Referring to the experimental method in Example 5, in vitro stability of IL-17A inhibitory peptides towards the enzymatic hydrolysis by trypsin, chymotrypsin and elastase were performed.

Setting [1] is: isolated enzyme trypsin, pH 7.8.

Sequence of DPP-IV (P27487 whole entry, species assumed): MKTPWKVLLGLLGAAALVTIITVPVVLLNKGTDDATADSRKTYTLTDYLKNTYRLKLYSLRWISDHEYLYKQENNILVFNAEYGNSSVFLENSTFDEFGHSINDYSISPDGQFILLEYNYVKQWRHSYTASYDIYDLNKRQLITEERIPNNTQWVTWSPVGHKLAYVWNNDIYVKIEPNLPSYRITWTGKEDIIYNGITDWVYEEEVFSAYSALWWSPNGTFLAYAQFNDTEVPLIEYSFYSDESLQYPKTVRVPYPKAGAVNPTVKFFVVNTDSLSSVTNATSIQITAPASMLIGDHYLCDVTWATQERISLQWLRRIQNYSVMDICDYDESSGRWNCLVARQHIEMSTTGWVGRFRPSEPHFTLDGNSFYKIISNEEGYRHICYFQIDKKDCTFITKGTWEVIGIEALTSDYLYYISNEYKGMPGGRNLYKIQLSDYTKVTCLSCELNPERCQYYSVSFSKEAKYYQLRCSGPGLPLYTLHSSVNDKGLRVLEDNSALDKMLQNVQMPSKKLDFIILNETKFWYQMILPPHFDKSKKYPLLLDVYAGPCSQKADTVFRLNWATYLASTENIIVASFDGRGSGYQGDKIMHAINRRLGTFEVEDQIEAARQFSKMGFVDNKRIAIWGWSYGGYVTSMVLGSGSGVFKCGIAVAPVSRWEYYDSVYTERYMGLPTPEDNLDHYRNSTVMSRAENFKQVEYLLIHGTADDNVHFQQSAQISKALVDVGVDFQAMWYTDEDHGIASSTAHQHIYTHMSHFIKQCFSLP

Consider `CC[C@H](C)[C@H](NC(=O)[C@H](Cc1ccccc1)NC(=O)[C@H](CCC(=O)O)NC(=O)[C@H](CCCCN)NC(=O)[C@H](C)NC(=O)[C@H](C)NC(=O)[C@H](CCC(N)=O)NC(=O)CNC(=O)[C@H](CCC(=O)O)NC(=O)[C@H](CC(C)C)NC(=O)[C@H](Cc1ccc(O)cc1)NC(=O)[C@H](CO)NC(=O)[C@H](CO)NC(=O)[C@@H](NC(=O)[C@H](CC(=O)O)NC(=O)[C@H](CO)NC(=O)[C@@H](NC(=O)[C@H](Cc1ccccc1)NC(=O)[C@@H](NC(=O)CNC(=O)[C@H](CCC(=O)O)NC(=O)[C@H](C)NC(=O)[C@H](Cc1c[nH]cn1)NC(=O)CNC(=O)CNC(=O)[C@H](CCCNC(=N)N)NC(=O)[C@H](CO)NC(=O)[C@H](Cc1ccccc1)NC(=O)[C@H](CCCNC(=N)N)NC(=O)[C@H](CCC(N)=O)NC(=O)CNC(=O)CNC(=O)[C@H](Cc1ccccc1)NC(=O)[C@@H]1CSSC[C@H](N)C(=O)NCC(=O)N[C@@H](CCCNC(=N)N)C(=O)N[C@@H](C)C(=O)N[C@@H]([C@@H](C)O)C(=O)N[C@@H](CCCCN)C(=O)N[C@@H](CO)C(=O)N[C@@H]([C@@H](C)CC)C(=O)N2CCC[C@H]2C(=O)N2CCC[C@H]2C(=O)N[C@@H]([C@@H](C)CC)C(=O)N1)[C@@H](C)O)[C@@H](C)O)C(C)C)C(=O)N[C@@H](C)C(=O)N[C@@H](Cc1c[nH]c2ccccc12)C(=O)N[C@@H](CC(C)C)C(=O)N[C@H](C(=O)N[C@@H](CCCCN)C(=O)NCC(=O)N[C@@H](CCCNC(=N)N)C(=O)NCC(=O)NCC(=O)N[C@@H](CCCCN)C(=O)O)C(C)C` [BT9-N-GLP-1], for which, on NEP24.11, the “Remaining peak area (%)/NEP24.11” value amounted to 100.0 ± 0.0%; the remaining at 0.5 h, 30 μM came to 76.4 ± 1.1%; the remaining at 2 h, 30 μM is 63.5 ± 1.9%; the remaining at 4 h, 30 μM was 47 ± 4.3%. Moreover, the remaining at 8 h, 30 μM at NEP24.11 stood at 41.8 ± 2.7%. Also, on DPP-IV, the “Remaining peak area (%)/DPP-IV” value is given as 100.0 ± 0.0%; the remaining at 0.5 h, 25 μM worked out at 92.5 ± 1.5%; the remaining at 2 h, 25 μM is 88 ± 1.8%; the remaining at 4 h, 25 μM was 79.4 ± 2.2%. Further, at DPP-IV, the remaining at 8 h, 25 μM turned out to be 76.1 ± 1.4% and the remaining at 12 h, 25 μM is 71.2 ± 2.1%. Also, on chymotrypsin, the remaining at 0.025 h, 60 μM came out at 77.1 ± 1.8%; the remaining at 0.05 h, 60 μM turned out to be 57.7 ± 2%; the remaining at 0.075 h, 60 μM was found to be 50.4 ± 3.2%; the remaining at 0.1 h, 60 μM is 41.2 ± 3.1%. At chymotrypsin, the remaining at 0.15 h, 60 μM is 26 ± 2.9%. Further, on trypsin (setting [1]), the remaining at 0.025 h, 60 μM is 90.8 ± 0.5%; the remaining at 0.05 h, 60 μM came to 90.4 ± 2%; the remaining at 0.075 h, 60 μM is 91 ± 2.1%; the remaining at 0.1 h, 60 μM came out at 91.1 ± 3%. For the same molecule, at trypsin (setting [1]), the remaining at 0.15 h, 60 μM amounted to 90.9 ± 3.1%; the remaining at 0.25 h, 60 μM was found to be 86.6 ± 3.5%; the remaining at 0.5 h, 60 μM was 86.5 ± 3.5%; the remaining at 1 h, 60 μM is 74.4 ± 2.6%.
With `CC[C@H](C)[C@H](NC(=O)[C@H](Cc1ccccc1)NC(=O)[C@H](CCC(=O)O)NC(=O)[C@H](CCCCN)NC(=O)[C@H](C)NC(=O)[C@H](C)NC(=O)[C@H](CCC(N)=O)NC(=O)CNC(=O)[C@H](CCC(=O)O)NC(=O)[C@H](CC(C)C)NC(=O)[C@H](Cc1ccc(O)cc1)NC(=O)[C@H](CO)NC(=O)[C@H](CO)NC(=O)[C@@H](NC(=O)[C@H](CC(=O)O)NC(=O)[C@H](CO)NC(=O)[C@@H](NC(=O)[C@H](Cc1ccccc1)NC(=O)[C@@H](NC(=O)CNC(=O)[C@H](CCC(=O)O)NC(=O)[C@H](C)NC(=O)[C@H](Cc1c[nH]cn1)NC(=O)CNC(=O)CNC(=O)[C@@H](NC(=O)[C@@H]1CCCN1C(=O)[C@@H](NC(=O)CNC(=O)CNC(=O)[C@H](CCCNC(=N)N)NC(=O)[C@H](CO)NC(=O)[C@H](Cc1ccccc1)NC(=O)[C@H](CCCNC(=N)N)NC(=O)[C@H](CCC(N)=O)NC(=O)CNC(=O)CNC(=O)[C@@H]1CSSC[C@H](N)C(=O)N2CCC[C@H]2C(=O)N[C@@H](CCCCN)C(=O)N[C@@H]([C@@H](C)CC)C(=O)N[C@@H](CC(C)C)C(=O)N[C@@H](CCC(N)=O)C(=O)N[C@@H](CCCNC(=N)N)C(=O)N1)[C@@H](C)CC)[C@@H](C)CC)[C@@H](C)O)[C@@H](C)O)C(C)C)C(=O)N[C@@H](C)C(=O)N[C@@H](Cc1c[nH]c2ccccc12)C(=O)N[C@@H](CC(C)C)C(=O)N[C@H](C(=O)N[C@@H](CCCCN)C(=O)NCC(=O)N[C@@H](CCCNC(=N)N)C(=O)NCC(=O)NCC(=O)N[C@@H](CCCCN)C(=O)O)C(C)C` [DNT-GLP-1], at NEP24.11, the “Remaining peak area (%)/NEP24.11” value was 100.0 ± 0.0%; the remaining at 0.5 h, 30 μM is 82.2 ± 1.3%; the remaining at 2 h, 30 μM stood at 79.1 ± 1.7%; the remaining at 4 h, 30 μM amounted to 77.9 ± 4.2%. In addition, the remaining at 8 h, 30 μM at NEP24.11 amounted to 67.8 ± 4.7%. Further, on DPP-IV, the “Remaining peak area (%)/DPP-IV” value stood at 100.0 ± 0.0%; the remaining at 0.5 h, 25 μM is 108 ± 9.3%; the remaining at 2 h, 25 μM amounted to 108 ± 1.7%; the remaining at 4 h, 25 μM was found to be 105 ± 2.3%. Besides, at DPP-IV, the remaining at 8 h, 25 μM was determined as 105 ± 1.7% and the remaining at 12 h, 25 μM is 97.4 ± 2.1%. Moreover, on chymotrypsin, the remaining at 0.025 h, 60 μM is 97 ± 5.7%; the remaining at 0.05 h, 60 μM stood at 89.8 ± 0.9%; the remaining at 0.075 h, 60 μM worked out at 85.1 ± 4.4%; the remaining at 0.1 h, 60 μM turned out to be 84.3 ± 2%. For the same molecule, the remaining at 0.15 h, 60 μM at chymotrypsin was found to be 78.2 ± 2.1%. Moreover, at trypsin, the “stability towards trypsin hydrolysis (in words)” value is reported as “completely degraded”. For the same molecule, on trypsin (setting [1]), the remaining at 0.025 h, 60 μM stood at 68.3 ± 5.9%; the remaining at 0.05 h, 60 μM stood at 44.9 ± 3.5%; the remaining at 0.075 h, 60 μM turned out to be 21.2 ± 1.1%; the remaining at 0.1 h, 60 μM came to 0%. On trypsin (setting [1]), the remaining at 0.15 h, 60 μM stood at 0%.
